Tests used:
DU-145 = assay: Cytotoxicity against human DU145 cells after 72 hrs by calcein AM assay; assay type: functional, cell-based; details: DU-145, 72 h, pooled result: one value given for 9 cell lines, strains, targets or settings
[1] = Activity of AknS in presence of AknT

kcat [1] [s⁻¹] | Structure (SMILES) | IC50 (DU-145) [nM]
– | C[C@H]1O[C@@H](O[C@H]2[C@@H](O)C[C@H](O[C@H]3[C@@H](O)C[C@H](O[C@H]4CC[C@@]5(C)[C@H](CC[C@@H]6[C@@H]5CC[C@]5(C)[C@@H](C7=CC(=O)OC7)CC[C@]65O)C4)O[C@@H]3C)O[C@@H]2C)C[C@H](O)[C@@H]1O [DIGITOXIN] | 440
0.00367 | CC[C@@]1(O)C[C@H](O[C@H]2C[C@H](N(C)C)[C@H](O[C@H]3C[C@H](O)[C@H](O[C@H]4CCC(=O)[C@H](C)O4)[C@H](C)O3)[C@H](C)O2)c2c(cc3c(c2O)C(=O)c2c(O)cccc2C3=O)[C@H]1C(=O)OC | –
